A short description of series [1]: EZ4U colorimetric cytotoxicity test, HeLa. The class given is cell-based, human. The note with it: human, HeLa cells; intrinsic cytotoxicity, compound alone, 3 days. From the text: (§1) The low intrinsic cytotoxicity of the additional drug component in the clinically used anticancer cocktails with traditional drugs is very important for treatment. This approach in chemotherapy can reduce the potential resulting toxic load on the body in the case of a combined action of these inhibitors on the activity of several targets. […] The effects of the tested compounds on cell survival are shown on Figure 4 and the CC50 values for three cell lines are shown in Table 1. The intrinsic cytotoxicity of a number of the studied compounds is quite high, namely, they have close IC50 values against the TDP1 and CC50 values on one or several studied cell lines. Most of the compounds generally were more toxic for the HEK293FT and HeLa cell lines than for the HEK293A cell line (Table 1 and Figure 4). The cytotoxicity of the three leader compounds, 7g, 10a, and 7h, was quite high. […] Compound 10b was one of the least toxic among the ten tested compounds.
(§2) Cytotoxicity of the compounds was examined against human cell lines HEK293A (human embryonic kidney)—WT, TDP1 deficient (Tdp1-/-), PARP1 deficient (PARP1-/-), and HeLa (cervical cancer) using an EZ4U colorimetric test (Biomedica, Vienna, Austria). The HEK293A cell line was obtained from Thermo Fisher Scientific (Waltham, MA, USA), and the HeLa cell line was obtained from the Russian Cell Culture Collection (RCCC) Institute of Cytology RAS, St. Petersburg, Russia. The cells were grown in DMEM/F12 medium (Gibco, Thermo Fisher Scientific, Waltham, MA, USA), with 1x GlutaMAX (Gibco, Thermo Fisher Scientific, Waltham, MA, USA), 50 IU/mL penicillin, 50 μg/mL streptomycin (MP Biomedicals), and in the presence of 10% fetal bovine serum (Biolot, Saint-Petersburg, Russia) in a 5% CO2 atmosphere. Cells were grown in the presence of 1% DMSO in the control wells. After the formation of a 30–50% monolayer, the tested compounds were added to the medium, and the cell culture was monitored for 3 days. The values were normalized to their own control in each case. At least three independent experiments were carried out. The 50% cytotoxic concentration (CC50) was defined as the compound concentration that reduced the cell viability by 50% when compared to the untreated controls. The compound concentration that caused 50% cell growth inhibition was determined using OriginPro 8.6.0 software (OriginLab, Northampton, MA, USA). The measurements were carried out in three independent experiments.

Series [2] in a line: Colorimetric cytotoxicity test, HEK293FT. To be noted: human, HEK293FT cells, intrinsic cytotoxicity. It counts as cell-based.
Source text: as §1, §2

Series [3] in a line: EZ4U colorimetric cytotoxicity test, HEK293A. The class given is cell-based. The note with it: human, HEK293A cells; intrinsic cytotoxicity, 3 days; read-out: HEK293A CC50.
Source text: as §1, §2

Series [4] addresses T1, TDP1 (Homo sapiens, UniProt Q9NUW8).
T1 construct: made in house; host or cells: E. coli
Put plainly: Real-time fluorescence assay of TDP1 activity. The class given is biochemical. The note with it: real-time fluorescent assay, 1.5 nM TDP1, 50 nM oligonucleotide; read-out: IC50 (TDP1). An excerpt:
We tested UA and all 14 newly synthesized UA derivatives for their TDP1 inhibitory properties by measuring their IC50 values using a real-time fluorescent assay. […] Compounds 10a,b are sulfoxide analogs of 7g,h.
Human recombinant tyrosyl-DNA phosphodiesterase 1 (TDP1) and human recombinant poly(ADP-ribose)-polymerase1 (PARP1) were expressed in the E. coli system and purified as described.
(§3) The biosensor (5′-[FAM] AAC GTC AGGGTC TTC C [BHQ]-3′) was synthesized in the Laboratory of Nucleic Acid Chemistry at the Institute of Chemical Biology and Fundamental Medicine (Novosibirsk, Russia) and was used for TDP1 enzyme activity real-time fluorescence detection. The reaction mixture (200 μL) contained a TDP1 reaction buffer (50 mM Tris-HCl, pH 8.0, 50 mM NaCl, and 7 mM β-mercaptoethanol), 50 nM oligonucleotide, varied concentrations of the tested compounds, and purified TDP1 in a final concentration 1.5 nM. The reaction mixtures were incubated at a constant temperature of 26 °C in a POLARstar OPTIMA fluorimeter (BMG LABTECH, GmbH, Ortenberg, Germany). Fluorescence intensity was measured (Ex485/Em520 nm) every 1 min for 10 min. The average values of the half maximal inhibitory concentration (IC50) were determined using an eleven-point concentration response curve and calculated using MARS Data Analysis 2.0 (BMG LABTECH). The 50% inhibitory concentration (IC50) was defined as the concentration of the compound that inhibited 50% of the enzyme activity when compared to the untreated controls. At least three independent experiments were carried out to obtain the IC50 values. To determine the kinetic parameters of the TDP1 enzymatic reaction, the apparent maximum rate of enzymatic reaction (Vmax), Michaelis constant (KM), possible inhibition mechanism, and steady-state kinetic experiments were carried out at 5 fixed concentrations of the substrate, with variation in the inhibitor concentrations. The standard reaction mixtures (200 μL) contained reaction buffer components; 50 nM, 100 nM, 200 nM, 500 nM, or 1000 nM substrate; an inhibitor; and 1.5 nM recombinant human TDP1. The initial kinetic curves were obtained in three independent experiments and statistically processed in OriginPro 8.6.0 (OriginLab, Northampton, MA, USA).

Series [5] has as its target T1, TDP1. Put plainly: Steady-state kinetics of the TDP1 reaction (Vmax, KM, type of inhibition). The class given is biochemical. Set-up: Vmax: unit not given here. The note with it: for Type of inhibition of TDP1 enzyme reaction: steady-state conditions, fall in both Vmax and KM with increasing inhibitor.
Source text: The reversible enzyme inhibitors were classified as competitive, uncompetitive, non-competitive, or mixed, depending on the binding of the enzyme, to the enzyme–substrate complex (ES) or to the enzyme–substrate–inhibitor triple complex (ESI). The enzyme could bind the inhibitor at the different steps of catalysis (before or after the substrate) and at the substrate-binding site or another site. The effect of the inhibitor on enzymatic activity can be analyzed using graphical representations of the Michaelis–Menten equation. […] TDP1 has a catalytic pocket with a narrow positively charged cleft where it binds DNA and with a relatively large cleft that contains a mixed charge distribution for the TOP1 fragment binding. It is known that TDP1 hydrolyzes the DNA–TOP1 adducts via two coordinated nucleophilic attacks of two His residues (His263 and His493) with the covalent intermediate complex formation. The enzyme reaction catalyzed by TDP1 could be inhibited in two steps: the first one is the inhibition of the TDP1 binding to the DNA substrate (the nucleophilic attack of His263). The second step is releasing TDP1 from the transition complex (nucleophilic attack by a water molecule activated by His493). Inhibition of the second step prevents the release of the DNA 3′-phosphate product from the DNA–TDP1 complex. Spinocerebellar ataxia with axonal neuropathy (SCAN1) is a neurological disease that is caused by a TDP1 His493Arg mutation. This mutation prevents the second step of hydrolysis of the intermediate complex and the enzyme remains covalently bound to DNA [47]. The uncompetitive inhibitors also prevent the second step of the reaction, stabilizing the enzyme–DNA covalent complex, which can lead to the accumulation of the single-strand breaks in the cell.
as §3
Table S25 Dependence of TDP1 reaction values V max and K M on the concentration of inhibitors
[7g], mM V max Standard Error K M Standard Error
[7h], mM V max Standard Error K M Standard Error
[10a], mM V max Standard Error K M Standard Error
[10b], mM V max Standard Error K M Standard Error

Where [6] appears, read: inhibitor 0.4 mM (so in the source).
Setting [7] is: inhibitor 0.8 mM (so in the source).
[8] abbreviates: inhibitor 1.6 mM (so in the source).
[9] abbreviates: inhibitor 3.2 mM (so in the source).
Where [10] appears, read: inhibitor 6.4 mM (so in the source).

Here are results for 12 molecules from publication PMC8583042, “New Hybrid Compounds Combining Fragments of Usnic Acid and Thioether Are Inhibitors of Human Enzymes TDP1, TDP2 and PARP1” (International Journal of Molecular Sciences, 2021).

A value given as a limit tells only on which side of the number the result lay.

T1 sequence (Q9NUW8 whole entry): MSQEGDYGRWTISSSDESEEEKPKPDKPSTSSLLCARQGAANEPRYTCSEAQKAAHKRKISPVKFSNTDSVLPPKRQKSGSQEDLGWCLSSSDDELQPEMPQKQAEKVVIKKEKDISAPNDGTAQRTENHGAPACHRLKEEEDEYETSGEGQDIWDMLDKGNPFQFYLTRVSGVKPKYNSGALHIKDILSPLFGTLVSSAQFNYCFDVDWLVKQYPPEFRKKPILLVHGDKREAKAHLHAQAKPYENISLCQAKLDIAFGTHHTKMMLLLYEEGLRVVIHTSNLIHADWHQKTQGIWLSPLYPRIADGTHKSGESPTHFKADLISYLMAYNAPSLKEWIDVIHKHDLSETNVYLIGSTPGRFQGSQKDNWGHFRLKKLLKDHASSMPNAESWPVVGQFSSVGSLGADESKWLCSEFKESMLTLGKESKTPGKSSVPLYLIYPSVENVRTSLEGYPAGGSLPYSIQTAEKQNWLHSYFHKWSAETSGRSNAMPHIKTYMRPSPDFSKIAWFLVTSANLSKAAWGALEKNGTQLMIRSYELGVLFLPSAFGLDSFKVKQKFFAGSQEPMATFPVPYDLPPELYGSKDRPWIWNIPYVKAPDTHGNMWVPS

With `CC(=O)C1=C(O)C=C2Oc3c(C(=O)CSC(=S)N(C)C)c(O)c(C)c(O)c3[C@@]2(C)C1=O` [7a, (2R)-4-acetyl-10-{2-[(dimethylcarbamothioyl)sulfanyl]acetyl}-5,11,13-trihydroxy-2,12-dimethyl-8-oxatricyclo [7.4.0.0^2,7]trideca-1(13),4,6,9,11-pentaen-3-one], the values for the half-maximal cytotoxic concentration (CC50) at 3 days in series [1], in series [2] and in series [3] were 13 ± 0.5 µM, over 50 µM and over 50 µM, respectively. In addition, in series [4], the half-inhibitory concentration (IC50) amounted to 5.4 ± 2.9 µM.

Regarding `CC(=O)C1=C(O)C=C2Oc3c(C(=O)CSC4=NCCS4)c(O)c(C)c(O)c3[C@@]2(C)C1=O` [7b, (2R)-4-acetyl-10-[2-(4,5-dihydro-1,3-thiazol-2-ylsulfanyl)acetyl]-5,11,13-trihydroxy-2,12-dimethyl-8-oxatricyclo[7.4.0.0^2,7]trideca-1(13),4,6,9,11-pentaen-3-one], the CC50 at 3 days in series [1] is 11 ± 0.5 µM; in series [2], 16 ± 5 µM; in series [3], over 50 µM. Moreover, the concentration for half-maximal inhibition (IC50) in series [4] was 4.4 ± 1 µM.

On to `CC(=O)C1=C(O)C=C2Oc3c(C(=O)CSc4nnc(N)s4)c(O)c(C)c(O)c3[C@@]2(C)C1=O` [7c, (2R)-4-acetyl-10-{2-[(5-amino-1,3,4-thiadiazol-2-yl)sulfanyl]acetyl}-5,11,13-trihydroxy-2,12-dimethyl-8-oxatricyclo[7.4.0. 0^2,7]trideca-1(13),4,6,9,11-pentaen-3-one], for which the values for the 50% cytotoxic concentration (CC50) at 3 days in series [1], in series [2] and in series [3] were 33 ± 2 µM, 35 ± 2 µM and over 50 µM, respectively. The concentration for half-maximal inhibition (IC50) in series [4] amounted to 4.3 ± 0.5 µM.

`CC(=O)C1=C(O)C=C2Oc3c(C(=O)CSc4nnc[nH]4)c(O)c(C)c(O)c3C2(C)C1=O` (stereo not shown) [7d]: the IC50 in series [4] was 25.2 ± 6.5 µM.

Consider `CC(=O)C1=C(O)C=C2Oc3c(C(=O)CSc4nc5ccccc5o4)c(O)c(C)c(O)c3C2(C)C1=O` (stereo not shown) [7e], for which the CC50 at 3 days in series [1] amounted to 2.9 ± 0.2 µM; in series [2], 4.5 ± 1 µM; in series [3] it was 26 ± 2 µM. Also, the IC50 in series [4] came out at 3.2 ± 0.5 µM.

For the molecule `CC(=O)C1=C(O)C=C2Oc3c(C(=O)CSc4nc5ccccc5[nH]4)c(O)c(C)c(O)c3[C@@]2(C)C1=O` [7f, (2R)-4-acetyl-10-[2-(1H-1,3-benzodiazol-2-ylsulfanyl)acetyl]-5,11,13-trihydroxy-2,12-dimethyl-8-oxatricyclo[7.4.0.0^2,7]trideca-1(13),4,6,9,11-pentaen-3-one], the values for the CC50 at 3 days in series [1], in series [2] and in series [3] were 13 µM, 10 ± 2 µM and over 50 µM, respectively. Also, the 50% inhibitory concentration (IC50) in series [4] amounted to 2.4 ± 1 µM.

Regarding `CC(=O)C1=C(O)C=C2Oc3c(C(=O)CSc4nc5ccccc5s4)c(O)c(C)c(O)c3C2(C)C1=O` (stereo not shown) [7g], the half-maximal cytotoxic concentration (CC50) at 3 days in series [1] worked out at 2 ± 0.6 µM; in series [2], 3 ± 1 µM; in series [3], 3.5 ± 0.3 µM. Also, the IC50 in series [4] came to 1.7 ± 0.6 µM. Moreover, the Vmax in series [5] (setting [6]) was 35.4; in series [5] (setting [7]), 25.6; in series [5] (setting [8]), 23.0; in series [5] (setting [9]), 19.4; in series [5] (setting [10]), 10.9. The “Type of inhibition of TDP1 enzyme reaction” value in series [5] is recorded as “uncompetitive”.

For the molecule `CC(=O)C1=C(O)C=C2Oc3c(C(=O)CSc4ccc(Cl)cc4)c(O)c(C)c(O)c3C2(C)C1=O` (stereo not shown) [7h], the CC50 at 3 days was 2.5 ± 0.5 µM in series [1], 4 ± 1 µM in series [2] and 10 ± 2 µM in series [3]. Further, in series [4], the IC50 is 2.2 ± 0.5 µM. The Vmax in series [5] (setting [6]) was 31.0; in series [5] (setting [7]), 26.7; in series [5] (setting [8]), 18.5; in series [5] (setting [9]), 15.3; in series [5] (setting [10]), 11.2. The “Type of inhibition of TDP1 enzyme reaction” value in series [5] is “uncompetitive”.

`CC(=O)C1=C(O)C=C2Oc3c(C(=O)CSc4ccccn4)c(O)c(C)c(O)c3[C@@]2(C)C1=O` [7i, (2R)-4-acetyl-5,11,13-trihydroxy-2,12-dimethyl-10-[2-(pyridin-2-ylsulfanyl)acetyl]-8-oxatricyclo[7.4.0. 0^2,7]trideca-1(13),4,6,9,11-pentaen-3-one]: in series [4], the concentration for half-maximal inhibition (IC50) was 11.9 ± 0.4 µM.

Turning to `CC(=O)C1=C(O)C=C2Oc3c(C(=O)CSc4ncccn4)c(O)c(C)c(O)c3[C@@]2(C)C1=O` [7j, (2R)-4-acetyl-5,11,13-trihydroxy-2,12-dimethyl-10-[2-(pyrimidin-2-ylsulfanyl)acetyl]-8-oxatricyclo[7.4.0. 0^2,7]trideca-1(13),4,6,9,11-pentaen-3-one], the 50% inhibitory concentration (IC50) in series [4] came out at 16.9 ± 2.4 µM.

On to `CC(=O)C1=C(O)C=C2Oc3c(C(=O)CSc4ncccc4C(=O)O)c(O)c(C)c(O)c3C2(C)C1=O` (stereo not shown) [7k], for which the IC50 in series [4] is 19.6 ± 2.8 µM.

In the case of `CC(=O)C1=C(O)C=C2Oc3c(C(=O)C[S+]([O-])c4ccc(Cl)cc4)c(O)c(C)c(O)c3[C@@]2(C)C1=O` (stereo partly shown) [10b], the CC50 at 3 days in series [1] is 27 ± 2 µM; in series [2] it was 20 ± 3 µM; in series [3], over 50 µM. Further, the Vmax was 18.7 in series [5] (inhibitor 0.2 mM (so in the source)), 10.7 in series [5] (setting [6]), 8.5 in series [5] (setting [7]) and 6.3 in series [5] (setting [8]). Also, in series [5], the “Type of inhibition of TDP1 enzyme reaction” value is “uncompetitive”.

Broadly, the CC50 is the concentration giving 50% cytotoxicity. In general, IC50 refers to the concentration that gives 50% inhibition.
